Data taken from ChEMBL document CHEMBL1201862, “PubChem BioAssay data set” (2004).
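Growth conditions: 96-well plates. Treatment: test compound, 48 hours, 5 concentrations. Analysis: linear interpolation between bracketing concentrations; unreached endpoints set to highest concentration. Here, GI50 denotes the concentration required for 50% inhibition of growth.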 Active and inactive are the calls of the source. No stated cut-off is given here; in the data, active = GI50 up to about 1.1 µM and inactive = higher.

Assays:
Experiment in all cases: inhibition of tumour cell growth, NCI panel, 48 h
COLO 205 = tested on: COLO 205
HOP-62 = tested on: HOP-62
HCC 2998 = tested on: HCC 2998
Malme-3M = tested on: Malme-3M
A549 = tested on: A549
HT-29 = tested on: HT-29
SK-MEL-5 = tested on: SK-MEL-5
SN12C = tested on: SN12C
OVCAR-8 = tested on: OVCAR-8
UACC-257 = tested on: UACC-257
K562 = tested on: K562
A498 = tested on: A498
SNB-75 = tested on: SNB-75
SF-268 = tested on: SF-268
UO-31 = tested on: UO-31
OVCAR-3 = tested on: OVCAR-3
NCI-H460 = tested on: NCI-H460
SK-MEL-2 = tested on: SK-MEL-2

Measured: GI50

O=C(O)/C(Cl)=C(\Cl)C(=O)NC1C2CC3CC(C2)CC1C3 (configuration not stated)
inactive: COLO 205 > 100 µM | HOP-62 > 100 µM | HCC 2998 > 100 µM | Malme-3M > 100 µM | A549 > 100 µM | HT-29 > 100 µM | SK-MEL-5 > 100 µM | SN12C > 100 µM | OVCAR-8 > 100 µM | UACC-257 > 100 µM | K562 > 100 µM | A498 > 100 µM | SNB-75 > 100 µM | SF-268 > 100 µM | UO-31 > 100 µM | OVCAR-3 > 100 µM

C/C(=C\CC/C=C(\C)CC/C=C(\C)CCC1SC1(C)C)CC/C=C(\C)CCC1OC1(C)C (configuration not stated)
inactive: COLO 205 > 100 µM | HCC 2998 > 100 µM | Malme-3M > 100 µM | A549 > 100 µM | HT-29 > 100 µM | SK-MEL-5 > 100 µM | SN12C > 100 µM | NCI-H460 > 100 µM | OVCAR-8 > 100 µM | SK-MEL-2 > 100 µM | K562 > 100 µM | A498 > 100 µM | SNB-75 > 100 µM | SF-268 > 100 µM | UO-31 > 100 µM | OVCAR-3 > 100 µM

CC12CC3C(CC1SCC(=O)O2)C3(C)C (configuration not stated)
inactive: COLO 205 > 100 µM | HCC 2998 > 100 µM | Malme-3M > 100 µM | A549 > 100 µM | HT-29 > 100 µM | SK-MEL-5 > 100 µM | SN12C > 100 µM | NCI-H460 > 100 µM | OVCAR-8 > 100 µM | UACC-257 > 100 µM | SK-MEL-2 > 100 µM | K562 > 100 µM | A498 16.6 µM | SNB-75 > 100 µM | SF-268 > 100 µM | UO-31 > 100 µM | OVCAR-3 > 100 µM

COC(=O)c1nc(-c2ccc(Cl)c(Cl)c2)nc2ccc(Cl)cc12
inactive: COLO 205 > 100 µM | HCC 2998 > 100 µM | Malme-3M > 100 µM | A549 97.7 µM | HT-29 > 100 µM | SK-MEL-5 > 100 µM | SN12C > 100 µM | NCI-H460 > 100 µM | OVCAR-8 47.4 µM | UACC-257 > 100 µM | SK-MEL-2 > 100 µM | K562 > 10 µM | A498 73.1 µM | SNB-75 19.6 µM | SF-268 92.9 µM | UO-31 33.6 µM | OVCAR-3 > 10 µM

CC(=O)OC12c3ccccc3C1CCCCCC21OCCCO1 (configuration not stated)
inactive: COLO 205 > 100 µM | HOP-62 > 100 µM | HCC 2998 > 100 µM | A549 > 100 µM | HT-29 > 100 µM | SK-MEL-5 > 100 µM | SN12C > 100 µM | NCI-H460 > 100 µM | OVCAR-8 > 100 µM | SK-MEL-2 > 100 µM | K562 > 100 µM | A498 > 100 µM | SNB-75 > 100 µM | SF-268 > 100 µM | UO-31 > 100 µM | OVCAR-3 > 100 µM

CCOc1ccc(C2=NN(CC)C(=O)C(C3C(=O)N(c4ccccc4)N=C3C)C2)cc1 (configuration not stated)
inactive: COLO 205 > 100 µM | HOP-62 > 100 µM | HCC 2998 > 100 µM | Malme-3M > 100 µM | A549 > 100 µM | HT-29 > 100 µM | SK-MEL-5 > 100 µM | NCI-H460 > 100 µM | OVCAR-8 > 100 µM | UACC-257 > 100 µM | SK-MEL-2 > 100 µM | K562 > 100 µM | A498 > 100 µM | SF-268 > 100 µM | UO-31 > 100 µM | OVCAR-3 > 100 µM

CN(C)CC1CCC/C1=N\O (configuration not stated)
inactive: COLO 205 > 100 µM | HOP-62 > 100 µM | HCC 2998 > 100 µM | HT-29 > 100 µM | SK-MEL-5 > 100 µM | SN12C > 100 µM | NCI-H460 > 100 µM | OVCAR-8 > 100 µM | UACC-257 > 100 µM | SK-MEL-2 > 100 µM | K562 > 100 µM | A498 > 100 µM | SNB-75 > 100 µM | SF-268 > 100 µM | UO-31 > 100 µM | OVCAR-3 > 100 µM

CC(CC(=O)N1C(=O)C(C)(C)[C@@H](O)[C@H]1CC(C)C(Cl)(Cl)Cl)C(Cl)(Cl)Cl (some centres not stated)
inactive: COLO 205 > 100 µM | HOP-62 > 100 µM | HCC 2998 > 100 µM | Malme-3M > 100 µM | A549 > 100 µM | HT-29 > 100 µM | SK-MEL-5 > 100 µM | SN12C > 100 µM | NCI-H460 > 100 µM | OVCAR-8 > 100 µM | UACC-257 > 100 µM | K562 > 100 µM | A498 > 100 µM | SNB-75 > 100 µM | SF-268 > 100 µM | UO-31 > 100 µM | OVCAR-3 > 100 µM

COC(=O)C1=C(c2cc(OC)c(OC)c(OC)c2)OC(c2ccc3c(c2)OCO3)C1 (configuration not stated)
inactive: COLO 205 12.8 µM | HOP-62 35.7 µM | HCC 2998 28.4 µM | Malme-3M 72.1 µM | A549 34.5 µM | HT-29 27.2 µM | SK-MEL-5 19.1 µM | SN12C 20.3 µM | NCI-H460 31.7 µM | OVCAR-8 37.9 µM | UACC-257 54.3 µM | K562 9.48 µM | A498 8.95 µM | SNB-75 39.4 µM | SF-268 56.5 µM | UO-31 15.5 µM | OVCAR-3 26.9 µM

O=C(CCc1n[nH]c(=S)o1)Nc1cc(Cl)ccc1Cl
inactive: COLO 205 > 100 µM | HOP-62 > 100 µM | HCC 2998 > 100 µM | Malme-3M > 100 µM | A549 50.6 µM | HT-29 52.8 µM | SK-MEL-5 > 100 µM | SN12C > 100 µM | NCI-H460 51.3 µM | OVCAR-8 > 100 µM | UACC-257 > 100 µM | K562 23.9 µM | A498 > 100 µM | SNB-75 > 100 µM | SF-268 56.6 µM | UO-31 > 100 µM | OVCAR-3 > 100 µM

C[Si](C)(C)/C=C\CCO
inactive: COLO 205 > 100 µM | HCC 2998 > 100 µM | Malme-3M > 100 µM | A549 > 100 µM | HT-29 > 100 µM | SK-MEL-5 > 100 µM | SN12C > 100 µM | NCI-H460 > 100 µM | OVCAR-8 > 100 µM | UACC-257 > 100 µM | SK-MEL-2 > 100 µM | K562 > 100 µM | A498 > 100 µM | SNB-75 > 100 µM | SF-268 > 100 µM | UO-31 > 100 µM | OVCAR-3 > 100 µM

c1ccc(C2(c3ccccc3)SSC3(S2)C2CC4CC(C2)CC3C4)cc1 (configuration not stated)
inactive: HCC 2998 > 100 µM | Malme-3M > 100 µM | A549 > 100 µM | HT-29 > 100 µM | SK-MEL-5 > 100 µM | SN12C > 100 µM | NCI-H460 > 100 µM | OVCAR-8 > 100 µM | UACC-257 > 100 µM | SK-MEL-2 > 100 µM | K562 > 100 µM | A498 > 100 µM | SNB-75 > 100 µM | SF-268 > 100 µM | UO-31 > 100 µM
